Results published in patent publication US9579406B2, “Phospholipid ether analogs as agents for detecting and locating cancer, and methods thereof” (Cellectar, Inc., priority 2004, dated 2017).
“Also recorded” adds a separate entry of the source. Like-named read-outs stand apart in the source and are kept apart here. Each block holds one molecule with its values, some of them ahead of it.

Key:
[1] = system: MAT LyLu cells; assay: Gamma camera scintigraphy in rat Dunning R3327 (MAT LyLu) prostate cancer model; conditions: tumor-bearing rats, 24 and 48 hours post injection
Description: The MatLyLu (Dunning R3327 rat) model, a rat prostate tumor line, was used specifically to screen 9 specific analogs prior to entering them into control for dosimetry and tumor-bearing animals for determining tumor/background ratios.
In order to expedite the screening process and minimize the number of tumor bearing animals utilized in multiple time point tissue distribution studies, new radioiodinated homologs were imaged by gamma camera scintigraphy in the rat Dunning R3337 (MAT LyLu strain) prostate cancer model. […] Gamma camera images were obtained at multiple time points including 24 and 48 hours post injection.
The new PLE analogs were synthesized and radiolabeled with ^125I for initial image analysis in Copenhagen rats bearing Dunning R3327 prostate tumors.

[2] = biological target: T1, Phospholipase C (PLC) (Bacillus cereus, UniProt P09598); assay: PLC substrate assay; assay type: biochemical
T1 construct: PLC isolated from Bacillus cereus; host or cells: Bacillus cereus (natural source)
Description: Formal metabolism studies were conducted on several PLE analogs including NM324, the predecessor of NM404. In these studies, each agent was examined to determine their ability to serve as substrates for enzymes associated with PLE metabolism. Three major enzymatic pathways are involved in the metabolism of PLE. O-Alkyl glycerol monooxygenase (AGMO) is responsible for cleavage of the alkyl ether linkage at C-1 to form either the long chain fatty alcohol or subsequently, the corresponding fatty acid. Phospholipases C (PLC) and D (PLD), on the other hand, give rise to the glycerol or phosphatidic acid products, respectively.

[3] = cited from earlier work
[4] = mouse; cited from earlier work
[5] = system: serum proteins; conditions: cited from earlier work
[6] = system: carrageenan-induced granulomas; assay: Uptake in carrageenan-induced granulomas; design: species or system rats; conditions: rat, in vivo
Text: This lack of specificity is a significant clinical issue in patients with cancer.

[7] = rats, cited from earlier work
[8] = system: several animal tumor models; assay: Animal tumor localization studies with first generation PLE analogs; assay type: in vivo; conditions: iodine-125 labeled; Walker 256, Lewis mammary, Dunning R3327, Vx2, human xenografts
Text: Phospholipid ethers can easily be labeled with iodine radioisotopes using radiolabeling methods developed in the labs. The iodophenyl phospholipid ether analogs are specifically designed so that the radioiodine affixed to each molecule is stable to facile in vivo deiodination. […] The inventors have now synthesized over 20 radiolabeled PLE compounds and tested in vitro and in vivo. […] Optimal tumor localization of these agents takes from one to several days due to the more rapid clearance of the radioactivity from normal tissues relative to tumor.

[9] = system: rat mammary tumor; assay: Biodistribution in rat mammary tumor model; assay type: in vivo
Description: In one such example in a rat mammary tumor model, tumor-to-normal tissue ratios reached a maximum at 96 hours with a tumor-to-blood ratio of 8.6 and tumor-to-muscle ratio of 20:1.
Extensive biodistribution data for the prototype agent ^125I-NM324 in several tumor models has previously been reported. […] For example, in a rat mammary tumor model, tumor-to-normal tissue ratios reached a maximum at 96 hours with a tumor-to-blood ratio of 8.6 and tumor-to-muscle ratio of 20:1. […] Comparative biodistribution data for NM324 and NM404 in SCID mice have been obtained in prostate and A549 lung cancer tumor models.

[10] = MIRD extrapolation of rat tissue distribution data to permissible human dose; design: species or system human (from rat data)
Text: Accordingly the inventors have conducted the preliminary pharmacokinetic studies in human lung cancer patients at 1 mCi. Similar extrapolative calculation of the dosimetry for ^124I-NM404 afforded a similar 2 mCi dose level again based on projected dosimetry to the adrenals and bladder wall. Preliminary human data (5 patients), however, indicate very little uptake and retention of the agent into any abdominal organ (including the bladder and adrenals) with the exception of the liver which returns to background levels within 11 days.
Dosing of radioiodinated ^124I NM404 will be based on MIRD extrapolation of the iodine-131 dosimetry data derived from this ongoing study. The ^131I-NM404 dose is currently calculated as follows: Animal biodistribution data is used to determine the percentage of injected dose/organ at varying time points. These animal data are extrapolated to man by means of MIRD formalism (MIRDOSE PC v3.1) using standard conversion factors for differences in organ mass and anatomy between rat and standard man, providing predicted human organ doses; Based on these predicted doses, the permissible mCi dose to be injected into humans is determined using the maximal doses legally permitted by RDRC regulations for specific human tissue as defined in the Federal Register (21CFR Part 361.1) e.g. whole body, blood, blood forming tissues, eye lens, gonads—3 rem/dose; any other tissue—5 rem/dose. This approach was previously used to bring both NM324 and NM404 to clinical use, resulting in a calculated dose of 1 mCi.

[11] = system: lung cancer; assay: Initial clinical studies of NM-324 in lung cancer patients; assay type: in vivo, human; conditions: for liver radioactivity in patients: human, in vivo; for tumor uptake in cancer patients: scintigraphy
[12] = Blood plasma kinetics in rats; assay type: in vivo; conditions: rat, read-out: elimination half life time in plasma (converted)
[13] = system: Walker-256 carcinosarcoma; assay: Tissue distribution of radioactivity in rats bearing Walker-256 carcinosarcoma; assay type: in vivo, rat
[14] = system: A549 lung, PC-3 prostate, c-myc pancreatic tumors; assay: microPET imaging in lung, prostate and pancreatic mouse tumor models; assay type: in vivo; conditions: any time point
Text: Human pharmacokinetic studies have confirmed this finding as only 4% of the agent is cleared renally within 4 days of iv injection (majority is excreted via GI route).

[15] = system: CNS-1 glioma brain tumor; assay: microPET imaging in rat CNS-1 brain tumor model; assay type: in vivo; conditions: 24 h after iv injection
Description: The inventors recently successfully radiolabeled NM404 twice with iodine-124 from a commercial vendor (Eastern Isotopes). The radiochemical yield (>60% mean isolated yield, >99% purity) was very similar to what we usually obtain with commercial sources of iodine-125 or 131 sodium iodide. The PET imaging characteristics of ^124I-NM404 in a rat CNS-1 brain tumor model (FIG. 24) was investigated. Imaging times in this preliminary study were limited to 24 h and 4 days post injection due to microPET scanner availability. […] These compounds may then be used for extending NM404 PET utility into human cancer patients.

[16] = assay type: in vivo, human
[17] = system: non-small cell lung cancer; assay: Planar gamma-camera scintigraphy with 131I-NM-404 in NSCLC patients; conditions: <1 mCi, n=3
Description: (§1) The preparation dispensed by the Nuclear Pharmacy will be certified as sterile and pyrogen-free. The subject will be monitored for adverse reactions during and after the infusion. Vital signs will be checked immediately after the infusion, and at 60 minute intervals up to four hours post-injection. They will be observed for adverse events throughout this time. […] Vital signs will be monitored at these times. Any adverse reactions experienced by the subjects will be recorded.

[18] = system: non-small cell lung cancer; conditions: human, in vivo
Description: as §1

T1 sequence (P09598 39-283 limits assumed): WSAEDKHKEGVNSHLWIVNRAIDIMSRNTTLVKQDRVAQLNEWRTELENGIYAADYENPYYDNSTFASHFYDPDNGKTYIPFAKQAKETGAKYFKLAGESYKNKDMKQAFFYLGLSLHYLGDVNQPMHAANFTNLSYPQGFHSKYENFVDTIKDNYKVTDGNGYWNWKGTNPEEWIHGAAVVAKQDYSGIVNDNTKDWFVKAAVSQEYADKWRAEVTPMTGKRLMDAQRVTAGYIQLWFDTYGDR

Compound: COC(COCCCCCCCCCCCCCCCCCCc1ccc(I)cc1)COP(=O)([O-])OCC[N+](C)(C)C (racemic) [NM-410, 1-O-[18-(p-Iodophenyl)octadecyl]-2-O-methyl-rac-glycero-3-phosphocholine]
tumor uptake and liver/abdominal radioactivity by gamma camera imaging [1]: high hepatic uptake, significant abdominal accumulation and retention or poor tumor uptake and retention; also recorded: high radioactivity levels in the liver and abdomen with little to no uptake of the agent into tumors
tumor uptake and liver/abdominal radioactivity by gamma camera imaging ([1]; listed as 10): retarded tumor uptake significantly

Compound: [3H]C(CCCCCC)C([3H])CCCCCCCC(=O)O[C@H](COC(=O)CCCCCCCCCCCCCCC)COP(=O)([O-])OCC[N+](C)(C)C (stereo partly drawn) [DPPC, 1-palmitoyl-2-[3H]-palmitoyl-L-3-phosphatidylcholine]
hydrolysis by PLC [2]: underwent significant hydrolysis

Compound: CCCCCCCCCCCCCCCCCCOCC(COP(=O)([O-])OCC[N+](C)(C)C)OC (stereo not drawn) [ET-18-OCH3]
maximum tolerated dose ([3]; intravenous): 50 mg/kg
adverse effects reported ([3]; up to 4 hours post-injection): pulmonary edema impaired hepatic function and hemolysis
LD50 (oral) [4]: 200 mg/kg
ether lipid bound to HDL [5]: about 6%
ether lipid bound to albumin [5]: 71%

Compound: O=C([O-])CC(O)(CC(=O)[O-])C(=O)[O-].[Ga+3] [Gallium citrate, reference compound]
uptake and retention in granulomas [6]: did indeed concentrate significantly in the granulomatous lesions

Compound: CCCCCCCCCCCCCCCCOP(=O)([O-])OCC[N+](C)(C)C [Miltefosine, hexadecyl phosphocholine]
maximum tolerated dose ([7]; over a 4-week period): 39 nmol/kg
LD50 [7]: 606 nmol/kg

Compound: COC(COCCCCCCCCCCCCc1cccc([125I])c1)COP(=O)([O-])OCC[N+](C)(C)C (stereo not drawn) [NM-294]
tumor localization [8]: selectively localized in tumors over time

tumor-to-blood ratio ([9]; 96 hours): 8.6
time of maximum tumor-to-normal tissue ratios ([9]; rat, in vivo): 96 h
calculated dose for clinical use [10]: 1 mCi
liver radioactivity in patients [11]: high liver radioactivity
half-life [12]: 2.43 h
Compound: C[N+](C)(C)CCOP(=O)([O-])OCCCCCCCCCCCCc1cccc(I)c1 [NM-324, 12-(3-iodophenyl)-dodecylphosphocholine]
uptake and retention in granulomas [6]: no uptake and retention
tumor localization [8]: selectively localized in tumors over time
liver radioactivity in patients ([11]; listed as NM324): unacceptable accumulation in liver tissue
lung tumor uptake ([11]; images 6 h post injection, lung cancer patient): intense lung tumor uptake
tumor uptake in cancer patients [11]: excellent tumor uptake
tumor uptake in cancer patients ([11]; listed as 131I-NM-324): Uptake is seen in the left lingular lung cancer (T) with increasing tumor-to-background ratios over time

Compound: C[N+](C)(C)CCOP(=O)([O-])OCCCCCCCCCCCCc1ccc(I)cc1 [NM-346]
tumor uptake and liver/abdominal radioactivity by gamma camera imaging [1]: readily visualized

Compound: C[N+](C)(C)CCOP(=O)([O-])OCCCCCCCc1ccc(I)cc1 [NM-396]
radioactivity in all of the organs surveyed ([13]; 24 hours): < 0.10 % ID/g
radioactivity in the thyroid ([13]; 24 hours): 213 % ID/g
localization in tumor tissue ([13]; all time points examined): did not localize in tumor tissue at any of the time points examined

Compound: C[N+](C)(C)CCOP(=O)([O-])OCCCCCCCCCCCCCCCc1ccc(I)cc1 [NM-397]
increase in tumor uptake versus C12 analog 4 ([13]; 24 h): 2 fold
radioactivity in the duodenum (maximum) ([13]; 48 hours after administration): 1.38±0.24 % ID/g
radioactivity in the tumor (peak) ([13]; 48 hours after administration): 1.65±0.23 % of ID/g
blood levels ([13]; 120 hours): 0.07±0.00 % of ID/g
time of peak tumor radioactivity ([13]; after administration): 48 h
tumor uptake and liver/abdominal radioactivity by gamma camera imaging [1]: readily visualized

Compound: C[N+](C)(C)CCOP(=O)([O-])OCCCOCCCCCCCCCCCCCCCCCCc1ccc(I)cc1 [NM-412, 1-O-[18-(p-Iodophenyl)octadecyl]-1,3-propanediol-3-phosphocholine]
tumor uptake and liver/abdominal radioactivity by gamma camera imaging [1]: high levels of liver and abdominal radioactivity; also recorded: tumor uptake accompanied by high liver and abdominal radioactivity levels
tumor uptake and liver/abdominal radioactivity by gamma camera imaging ([1]; listed as 8): fairly high levels of liver and abdominal radioactivity

Compound: C[N+](C)(C)CCOP(=O)([O-])OCCCCCCCCCCCCCCCCCCc1ccc([124I])cc1 [^124I-NM404]
bladder activity [14]: lack of bladder activity at any time point; also recorded: No bladder activity was evident at any time point
dose level based on projected dosimetry to the adrenals and bladder wall ([10]; 124I label): 2 mCi
tracer uptake in brain tumor and surrounding brain [15]: intense uptake of the tracer in the brain tumor accompanied by little or no uptake in surrounding intact brain tissue

Compound: C[N+](C)(C)CCOP(=O)([O-])OCCCCCCCCCCCCCCCCCCc1ccc([131I])cc1 [^131I-NM404]
time for liver to return to background levels ([16]; 5 patients): ≤ 11 days
dose level safe to administer ([16]; advanced non-small cell lung cancer subjects): 0.0003 mg/kg
safety ([16]; first-in-human pharmacokinetic studies): safe
starting maximum dose [10]: around 1.9 mCi
5 Rad limiting dose to the adrenals and bladder wall ([10]; 131I label): 2 mCi
tumor uptake and retention [17]: tumor uptake and prolonged retention in the primary lung tumors
crossing of the blood brain barrier [18]: doesn't cross the intact blood brain barrier
